{"source": "patent US10882871B2", "about": "“18/19F-labelled compounds which target the prostate specific membrane antigen” (BRITISH COLUMBIA CANCER AGENCY BRANCH, priority 2016, dated 2021)", "tested_on": "PSMA-expressing LNCAP cancer xenografts", "experiment": "Biodistribution and tumor-to-background contrast ratios of 18F-labeled tracers", "type": "in vivo, mouse (NODSCID 1L2RγKO male mice)", "protocol": "LNCap cell line was obtained from ATCC (LNCaP clone FGC, CRL-1740). It was established from a metastatic site of left supraclavicular lymph node of human prostatic adenocarcinoma. Cells were cultured in PRMI 1640 medium supplemented with 10% FBS, penicillin (100 U/mL) and streptomycin (100 μg/mL) at 37° C. in a humidified incubator containing 5% CO2. Cells grown to 80-90% confluence were then washed with sterile phosphate-buffered saline (1×PBS pH 7.4) and trypsinization. The collected cells number was counted with a Hausser Scientific (Horsham, Pa.) Hemacytometer.\nImaging and biodistribution experiments were performed using NODSCID 1L2RγKO male mice. Mice were anesthetized by inhalation with 2% isoflurane in oxygen, and implanted subcutaneously with 1×10^7 LNCaP cells behind left shoulder. Mice were imaged or used in biodistribution studies when the tumor grew up to reach 5-8 mm in diameter during 5-6 weeks.\nPET imaging experiments were conducted using Siemens Inveon micro PET/CT scanner. Each tumor bearing mouse was injected 6-8 MBq of F-18 labeled tracer through the tail vein under anesthesia (2% isoflurane in oxygen). The mice were allowed to recover and roam freely in their cage. After 50 min, the mice were sedated again with 2% isoflurane in oxygen inhalation and positioned in the scanner. A 10-min CT scan was conducted first for localization and attenuation correction after segmentation for reconstructing the PET images. Then, a 10-min static PET imaging was performed to determined uptake in tumor and other organs. The mice were kept warm by a heating pad during acquisition. For imaging studies acquired at 2 h post-injection (p.i.), the mice were placed in the micro PET/CT scanner at 110 min p.i. Then, the CT and PET acquisitions were conducted as described above.\nFor biodistribution studies, the mice were injected with the radiotracer as described above. At predetermined time points (1 or 2 h), the mice was anesthetized with 2% isoflurane inhalation, and euthanized by CO2 inhalation. Blood was withdrawn immediately from the heart, and the organs/tissues of interest were collected. The collected organs/tissues were weighed and counted using an automatic gamma counter. The uptake in each organ/tissue was normalized to the injected dose using a standard curve, and expressed as the percentage of the injected dose per gram of tissue (% ID/g).", "data": [{"smiles": "C[N+](C)(Cc1ccc(C(=O)NCCCC[C@H](NC(=O)N[C@@H](CCC(=O)O)C(=O)O)C(=O)O)cc1)C[B-](F)(F)[18F]", "note": "[F-18 HTK-01069]", "values": [{"measurement": "Biodistribution Adrenal glands", "setting": "1 h", "value": "4.77 ± 1.75", "unit": "% ID/g"}, {"measurement": "Biodistribution Blood", "setting": "1 h", "value": "0.57 ± 0.15", "unit": "% ID/g"}, {"measurement": "Biodistribution Bone", "setting": "1 h", "value": "0.36 ± 0.02", "unit": "% ID/g"}, {"measurement": "Biodistribution Brain", "setting": "1 h", "value": "0.04 ± 0.01", "unit": "% ID/g"}, {"measurement": "Biodistribution Fat", "setting": "1 h", "value": "0.99 ± 0.39", "unit": "% ID/g"}, {"measurement": "Biodistribution Heart", "setting": "1 h", "value": "0.30 ± 0.06", "unit": "% ID/g"}, {"measurement": "Biodistribution Intestine", "setting": "1 h", "value": "0.54 ± 0.11", "unit": "% ID/g"}, {"measurement": "Biodistribution Kidneys", "setting": "1 h", "value": "114 ± 41.3", "unit": "% ID/g"}, {"measurement": "Biodistribution Liver", "setting": "1 h", "value": "2.90 ± 0.56", "unit": "% ID/g"}, {"measurement": "Biodistribution Lungs", "setting": "1 h", "value": "1.37 ± 0.36", "unit": "% ID/g"}, {"measurement": "Biodistribution Muscle", "setting": "1 h", "value": "0.26 ± 0.08", "unit": "% ID/g"}, {"measurement": "Biodistribution Pancreas", "setting": "1 h", "value": "0.55 ± 0.16", "unit": "% ID/g"}, {"measurement": "Biodistribution Spleen", "setting": "1 h", "value": "2.67 ± 0.98", "unit": "% ID/g"}, {"measurement": "Biodistribution Stomach", "setting": "1 h", "value": "0.12 ± 0.05", "unit": "% ID/g"}, {"measurement": "Biodistribution Testes", "setting": "1 h", "value": "0.62 ± 0.15", "unit": "% ID/g"}, {"measurement": "Biodistribution Tumor", "setting": "1 h", "value": "6.04 ± 1.24", "unit": "% ID/g"}, {"measurement": "Tumor:Blood contrast ratio", "setting": "1 h", "value": "10.8 ± 1.64"}, {"measurement": "Tumor:Muscle contrast ratio", "setting": "1 h", "value": "23.4 ± 3.71"}, {"measurement": "Tumor:kidney contrast ratio", "setting": "1 h", "value": "0.07 ± 0.06"}, {"measurement": "Biodistribution Adrenal glands", "setting": "2 h", "value": "3.66 ± 2.01", "unit": "% ID/g"}, {"measurement": "Biodistribution Blood", "setting": "2 h", "value": "0.24 ± 0.10", "unit": "% ID/g"}, {"measurement": "Biodistribution Bone", "setting": "2 h", "value": "0.30 ± 0.10", "unit": "% ID/g"}, {"measurement": "Biodistribution Brain", "setting": "2 h", "value": "0.04 ± 0.01", "unit": "% ID/g"}, {"measurement": "Biodistribution Fat", "setting": "2 h", "value": "0.86 ± 0.53", "unit": "% ID/g"}, {"measurement": "Biodistribution Heart", "setting": "2 h", "value": "0.20 ± 0.08", "unit": "% ID/g"}, {"measurement": "Biodistribution Intestine", "setting": "2 h", "value": "0.72 ± 0.15", "unit": "% ID/g"}, {"measurement": "Biodistribution Kidneys", "setting": "2 h", "value": "103 ± 56.7", "unit": "% ID/g"}, {"measurement": "Biodistribution Liver", "setting": "2 h", "value": "2.75 ± 0.56", "unit": "% ID/g"}, {"measurement": "Biodistribution Lungs", "setting": "2 h", "value": "0.99 ± 0.32", "unit": "% ID/g"}, {"measurement": "Biodistribution Muscle", "setting": "2 h", "value": "0.15 ± 0.04", "unit": "% ID/g"}, {"measurement": "Biodistribution Pancreas", "setting": "2 h", "value": "0.41 ± 0.20", "unit": "% ID/g"}, {"measurement": "Biodistribution Spleen", "setting": "2 h", "value": "1.93 ± 0.85", "unit": "% ID/g"}, {"measurement": "Biodistribution Stomach", "setting": "2 h", "value": "0.09 ± 0.03", "unit": "% ID/g"}, {"measurement": "Biodistribution Testes", "setting": "2 h", "value": "0.40 ± 0.06", "unit": "% ID/g"}, {"measurement": "Biodistribution Tumor", "setting": "2 h", "value": "5.47 ± 0.75", "unit": "% ID/g"}, {"measurement": "Tumor:Blood contrast ratio", "setting": "2 h", "value": "26.9 ± 13.3"}, {"measurement": "Tumor:Muscle contrast ratio", "setting": "2 h", "value": "37.4 ± 8.86"}, {"measurement": "Tumor:kidney contrast ratio", "setting": "2 h", "value": "0.07 ± 0.03"}]}, {"smiles": "C[N+](C)(Cc1cn(Cc2ccc(C(=O)NCCCC[C@H](NC(=O)N[C@@H](CCC(=O)O)C(=O)O)C(=O)O)cc2)nn1)C[B-](F)(F)[18F]", "note": "[F-18 HTK-01070]", "values": [{"measurement": "Biodistribution Adrenal glands", "setting": "1 h", "value": "4.65 ± 1.75", "unit": "% ID/g"}, {"measurement": "Biodistribution Blood", "setting": "1 h", "value": "0.52 ± 0.06", "unit": "% ID/g"}, {"measurement": "Biodistribution Bone", "setting": "1 h", "value": "0.44 ± 0.09", "unit": "% ID/g"}, {"measurement": "Biodistribution Brain", "setting": "1 h", "value": "0.04 ± 0.01", "unit": "% ID/g"}, {"measurement": "Biodistribution Fat", "setting": "1 h", "value": "0.73 ± 0.26", "unit": "% ID/g"}, {"measurement": "Biodistribution Heart", "setting": "1 h", "value": "0.33 ± 0.08", "unit": "% ID/g"}, {"measurement": "Biodistribution Intestine", "setting": "1 h", "value": "0.33 ± 0.05", "unit": "% ID/g"}, {"measurement": "Biodistribution Kidneys", "setting": "1 h", "value": "71.7 ± 18.0", "unit": "% ID/g"}, {"measurement": "Biodistribution Liver", "setting": "1 h", "value": "1.69 ± 0.19", "unit": "% ID/g"}, {"measurement": "Biodistribution Lungs", "setting": "1 h", "value": "1.39 ± 0.17", "unit": "% ID/g"}, {"measurement": "Biodistribution Muscle", "setting": "1 h", "value": "0.23 ± 0.04", "unit": "% ID/g"}, {"measurement": "Biodistribution Pancreas", "setting": "1 h", "value": "0.33 ± 0.05", "unit": "% ID/g"}, {"measurement": "Biodistribution Spleen", "setting": "1 h", "value": "5.01 ± 0.64", "unit": "% ID/g"}, {"measurement": "Biodistribution Stomach", "setting": "1 h", "value": "0.10 ± 0.03", "unit": "% ID/g"}, {"measurement": "Biodistribution Testes", "setting": "1 h", "value": "0.67 ± 0.17", "unit": "% ID/g"}, {"measurement": "Biodistribution Tumor", "setting": "1 h", "value": "8.28 ± 1.25", "unit": "% ID/g"}, {"measurement": "Tumor:Blood contrast ratio", "setting": "1 h", "value": "16.0 ± 1.37"}, {"measurement": "Tumor:Muscle contrast ratio", "setting": "1 h", "value": "37.3 ± 9.53"}, {"measurement": "Tumor:kidney contrast ratio", "setting": "1 h", "value": "0.12 ± 0.04"}, {"measurement": "Biodistribution Adrenal glands", "setting": "2 h", "value": "2.11 ± 0.78", "unit": "% ID/g"}, {"measurement": "Biodistribution Blood", "setting": "2 h", "value": "0.23 ± 0.11", "unit": "% ID/g"}, {"measurement": "Biodistribution Bone", "setting": "2 h", "value": "0.30 ± 0.06", "unit": "% ID/g"}, {"measurement": "Biodistribution Brain", "setting": "2 h", "value": "0.03 ± 0.01", "unit": "% ID/g"}, {"measurement": "Biodistribution Fat", "setting": "2 h", "value": "0.62 ± 0.34", "unit": "% ID/g"}, {"measurement": "Biodistribution Heart", "setting": "2 h", "value": "0.13 ± 0.06", "unit": "% ID/g"}, {"measurement": "Biodistribution Intestine", "setting": "2 h", "value": "0.29 ± 0.08", "unit": "% ID/g"}, {"measurement": "Biodistribution Kidneys", "setting": "2 h", "value": "68.5 ± 28.7", "unit": "% ID/g"}, {"measurement": "Biodistribution Liver", "setting": "2 h", "value": "1.50 ± 0.30", "unit": "% ID/g"}, {"measurement": "Biodistribution Lungs", "setting": "2 h", "value": "0.69 ± 0.23", "unit": "% ID/g"}, {"measurement": "Biodistribution Muscle", "setting": "2 h", "value": "0.12 ± 0.03", "unit": "% ID/g"}, {"measurement": "Biodistribution Pancreas", "setting": "2 h", "value": "0.21 ± 0.07", "unit": "% ID/g"}, {"measurement": "Biodistribution Spleen", "setting": "2 h", "value": "1.30 ± 0.48", "unit": "% ID/g"}, {"measurement": "Biodistribution Stomach", "setting": "2 h", "value": "0.06 ± 0.02", "unit": "% ID/g"}, {"measurement": "Biodistribution Testes", "setting": "2 h", "value": "0.36 ± 0.21", "unit": "% ID/g"}, {"measurement": "Biodistribution Tumor", "setting": "2 h", "value": "7.56 ± 1.57", "unit": "% ID/g"}, {"measurement": "Tumor:Blood contrast ratio", "setting": "2 h", "value": "38.9 ± 18.8"}, {"measurement": "Tumor:Muscle contrast ratio", "setting": "2 h", "value": "67.7 ± 14.8"}, {"measurement": "Tumor:kidney contrast ratio", "setting": "2 h", "value": "0.14 ± 0.10"}]}]}
